Assay results as given in paper PMC8113459, “Selective inhibition of cullin 3 neddylation through covalent targeting DCN1 protects mice from acetaminophen-induced liver toxicity” (Nature Communications, 2021).
Values joined by “and” are separate entries in the source; they are usually repeats but may differ in a detail not shown here. Equal entries are not always repeated. Where two headings read alike, the source gives them in different places.

How the values were obtained:
[1] = system: NRF2 protein in mouse liver tissue; assay: Pharmacodynamics: NRF2 protein in mouse liver tissue (western blot); format: in vivo; settings: C57BL/6 male mice, single dose 25 mg/kg IP
Protocol: Fig. 7 DI-1859 effectively increases the level of NRF2 protein in the liver tissue and protects liver tissue damage induced by acetaminophen (APAP) in mice. a Western blotting analysis of the effect of DI-1548 or DI-1859 on the level of NRF2 protein in mouse liver tissue. Liver tissues harvested from C57BL/6 male mice treated with DI-1548 or DI-1859 at 25 mg/kg via intraperitoneal (IP) injection was lysed with RIAP buffer. The expression level of NRF2 protein was examined by western blotting. GAPDH was used a loading control. Representative images of two independent experiments are shown. b Analysis of the serum alanine aminotransferase (ALT) level in mice. The time (h) counted from APAP administration in G2 and G5-8, from DI-1859 or vehicle administration in G1, G3, and G4. Data are presented as mean ± s.d. with n = 9 (G1), 9 (G2), 8 (G3), 8 (G4), 9 G5), 9 (G6), 9 (G7), and 9 (G8). c Immunohistological analysis of mouse liver tissues. Images are representatives in each group. Images were taken with a 100× objective. Scale bar: 100 µm. d Analysis of the ROS level in mouse liver tissue. Data are presented as mean ± s.d. with n = 9 (G1), 8 (G2), 8 (G3), 8 (G4), 8 (G5), 6 (G6), 9 (G7), and 9 (G8). G1: Vehicle (qD for 3 days); G2: APAP (400 mg/kg, a single dose); G3: DI-1859 (25 mg/kg, qD for 3 days); G4: DI-1859 (50 mg/kg, qD for 3 days); G5: DI-1859 (25 mg/kg, qD for 3 days), a single dose of APAP at 400 mg/kg administered 3 h after the second dose of DI-1859 administration on day 2; G6: DI-1859 (50 mg/kg, qD for 3 days), a single dose of APAP at 400 mg/kg administered 3 h after the second dose of DI-1859 administration on day 2; G7: APAP (400 mg/kg, a single dose), followed with DI-859 at 25 mg/kg 3 h after APAP administration and two additional doses on day 2 and day 3; and G8: APAP (400 mg/kg, a single dose), followed with DI-859 at 50 mg/kg 3 h after APAP administration and two additional doses on day 2 and day 3. n = 8–9 mice per group. Source data are provided as a Source Data file.
Western blotting was performed as described previously. […]

NRF2 protein = assay: Western blot, NRF2 protein accumulation in cells; format: cell-based, human
Protocol: (§1) Western blotting was performed as described previously. Treated cells were lysed by RIPA buffer supplemented with protease inhibitor. The expression level of indicated proteins was examined by immunoblotting analysis and GAPDH was used as the loading control. Antibodies were purchased commercially: cullin 1 (sc-17775, 1:500 dilution) and cullin 2 (sc-166506, 1:500 dilution) from Santa Cruz Biotech (Santa Cruz, CA); cullin 4A (PA5-14542, 1:1000 dilution), cullin 4B (PA5-50647, 1:1000 dilution), and DCN3 (DCUN1D3, PA5-44000, 1:1000 dilution) from Thermo Fisher Scientific (Wayne, MI); cullin 3 (2759, 1:1000), NRF2 (12721, 1:1000 dilution), HO-1 (70081, 1:1000 dilution), and Bim (2819, 1:1000 dilution) from Cell Signaling Technology (Boston, MA); DCN1 (GWB-E3D700, 1:1000 dilution) from GenWay Biotech (San Diego, CA); and cullin 5 (A302-173A, 1:500 dilution) from Bethyl Labs (Montgomery, TX). Results are representative of two independent experiments.

DCN3 protein = DCN3 protein (Homo sapiens, UniProt Q8IWE4); assay: Intact-protein mass spectrometric analysis, Method B (DCN3); format: binding; settings: 3 h incubation
Protocol: Method B: Recombinant DCN1 or DCN3 protein (100 nM in 25 mM Tris 7.5, 200 mM NaCl, 1 mM DTT buffer) was incubated with 1.2-fold excess of the DCN1 inhibitors at 37 °C for 10 min, 1 h, or 3 h. Following incubation, the protein was analyzed by LC–MS (Agilent Q-TOF 6545) under the following conditions: fragmentor voltage, 300 V; skimmer voltage, 75 V; nozzle voltage, 100 V; sheath gas temperature, 350 °C; and drying gas temperature, 325 °C. MassHunter Qualitative Analysis software (Agilent) was used to analyze the data. Intact protein masses were obtained using the maximum entropy deconvolution algorithm. The mass spectrometry data in Supplementary Figs. 14–17 were generated by Method B.

[2] = system: neddylation of cullin 1, 2, 4A, 4B, and 5; assay: Western blot, neddylation of other cullin members; format: cell-based, human
Protocol: as §1

[3] = Pharmacokinetics: concentrations in mouse plasma and liver; format: in vivo; settings: for concentration at 1 h / concentration at 3 h / concentration at 6 h / concentration at 24 h: male, C57BL/6, mouse, ip
Protocol: Supplementary Table 2A. Concentrations of DI-1548 in mouse Plasma and liver after the C57BL/6 male mice were treated with a single dose of DI-1548 at 25 mg/kg via intraperitoneal (IP) injection. BLQ: below the limit of quantification.
Time point (h) Plasma (ng /mL) Liver (ng /g)
Supplementary Table 2B. Concentrations of DI-1859 in mouse Plasma and liver after the C57BL/6 male mice were treated with a single dose of DI-1859 at 25 mg/kg via intraperitoneal (IP) injection. BLQ:
Time point (h) Pl asma (ng /mL) Liver (ng /g) […]

neddylation of cullin 3 [4] = assay: Western blot, cullin 3 neddylation in U2OS cells; format: cell-based, human
Protocol: as §1

neddylation of cullin 3 [5] = assay: Western blot, cullin 3 neddylation in cells of different tissue types (U2OS, THLE2, MDA-MB-231, KYSE70, HCT116); format: cell-based, human
Protocol: as §1

[6] = C57BL/6 male mice, 25 mg/kg IP, 6 h
[7] = C57BL/6 male mice, 25 mg/kg IP, 24 h

Chain of DCN3 protein (Q8IWE4 86-304 limits assumed): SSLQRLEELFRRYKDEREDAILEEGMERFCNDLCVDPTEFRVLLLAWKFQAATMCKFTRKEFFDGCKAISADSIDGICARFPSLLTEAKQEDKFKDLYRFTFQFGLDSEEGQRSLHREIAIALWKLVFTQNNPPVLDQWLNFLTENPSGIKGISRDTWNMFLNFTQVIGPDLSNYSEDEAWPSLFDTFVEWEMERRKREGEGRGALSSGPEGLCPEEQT

SMILES: C=C(CN1CCOCC1)C(=O)NC[C@@H](NC(=O)[C@H](Cc1nc2ccc(C(C)C)cc2s1)NC(=O)CC)C1CCCCC1 [DI-1548]
- upregulation of NRF2 protein in the mouse liver [1]: robust upregulation
- times more potent than DI-591 in inducing accumulation of NRF2 protein (NRF2 protein): 100–1000 times
- covalent complex formation with DCN3 (DCN3 protein): fail to form any detectable complex
- effect on the neddylation of cullin 1 ([2]; U2OS, treatment time up to 48 h): no effect
- selectivity in inhibition of the neddylation of cullin 3 over other cullin members ([2]; a number of cell lines): > 1000 fold and 1000 fold
- effect on the neddylation of cullin 1, 2, 4A, 4B, and 5 ([2]; concentrations up to 1000 nM): no obvious effect
- time by which the compounds were cleared from systemic circulation ([3]; 25 mg/kg IP): < 3 h
- Liver concentration ([3]; C57BL/6 male mice, 25 mg/kg IP, 3 h): BLQ
- Liver concentration [3, 6]: BLQ
- Plasma concentration [3, 6]: BLQ
- Liver concentration [3, 7]: BLQ
- Plasma concentration [3, 7]: BLQ
- concentration at 1 h ([3]; liver, 25 mg/kg, C57BL/6 male mice, 25 mg/kg IP, 1 h, read-out: Liver concentration): 783 ± 336 ng/g
- concentration at 1 h ([3]; liver, 25 mg/kg, mouse liver, IP 25mg/kg, 1h, mean of 3 mice, read-out: Concentration in mouse liver, MEAN): 783 ng/g
- concentration at 3 h ([3]; liver, 25 mg/kg, mouse liver, IP 25mg/kg, 3h, mean of 3 mice, read-out: Concentration in mouse liver, MEAN): 3.32 ng/g
- concentration at 3 h ([3]; liver, 25 mg/kg, mouse liver, IP 25mg/kg, 3h, single animals, read-out: Concentration in mouse liver, individual mice 1, 2, 3): 3.8 ng/g
- concentration at 6 h ([3]; liver, 25 mg/kg, mouse liver, IP 25mg/kg, 6h, mean of 3 mice, read-out: Concentration in mouse liver, MEAN): 2.37 ng/g
- concentration at 6 h ([3]; liver, 25 mg/kg, mouse liver, IP 25mg/kg, 6h, single animals, read-out: Concentration in mouse liver, individual mice 1, 2, 3): 2.47 ng/g
- concentration at 24 h ([3]; liver, 25 mg/kg, mouse liver, IP 25mg/kg, 24h, mean, read-out: Concentration in mouse liver, MEAN): 1.22 ng/g
- concentration at 24 h ([3]; liver, 25 mg/kg, mouse liver, IP 25mg/kg, 24h, single animals, read-out: Concentration in mouse liver, individual mice 1, 2, 3): 1.22 ng/g
- concentration at 1 h ([3]; plasma, 25 mg/kg, C57BL/6 male mice, 25 mg/kg IP, 1 h, read-out: Plasma concentration): 1830 ± 319 ng/mL
- concentration at 3 h ([3]; plasma, 25 mg/kg, C57BL/6 male mice, 25 mg/kg IP, 3 h, read-out: Plasma concentration): 4.5 ± 3.6 ng/mL
- concentration at 1 h ([3]; plasma, 25 mg/kg, mouse plasma, IP 25mg/kg, 1h, mean of 3 mice, read-out: Concentration in mouse plasma, MEAN): 1830 ng/mL
- concentration at 1 h ([3]; plasma, 25 mg/kg, mouse plasma, IP 25mg/kg, 1h, single animals, read-out: Concentration in mouse plasma, individual mice 1, 2, 3): 1820 ng/mL
- concentration at 3 h ([3]; plasma, 25 mg/kg, mouse plasma, IP 25mg/kg, 3h, mean of 3 mice, read-out: Concentration in mouse plasma, MEAN): 4.47 ng/mL
- concentration at 6 h ([3]; plasma, 25 mg/kg, mouse plasma, IP 25mg/kg, 6h, mean (only one mouse above the limit of quantification), read-out: Concentration in mouse plasma, MEAN): 1.12 ng/mL
- concentration at 6 h ([3]; plasma, 25 mg/kg, mouse plasma, IP 25mg/kg, 6h, single animals, limit of quantification 1 ng/mL, read-out: Concentration in mouse plasma, individual mice 1, 2, 3): 1.12 ng/mL
- concentration at 24 h ([3]; plasma, 25 mg/kg, mouse plasma, IP 25mg/kg, 24h, single animals, limit of quantification 1 ng/mL, read-out: Concentration in mouse plasma, individual mice 1, 2, 3): < 1 ng/mL
- Concentration in mouse liver, individual mice 1, 2, 3 ([3]; mouse liver, IP 25mg/kg, 1h, single animals, 25 mg/kg): 766.08 ng/g and 455.81 ng/g and 1128.06 ng/g
- Concentration in mouse liver, individual mice 1, 2, 3 ([3]; mouse liver, IP 25mg/kg, 3h, single animals, 25 mg/kg): 2.91 ng/g and 3.26 ng/g
- Concentration in mouse liver, individual mice 1, 2, 3 ([3]; mouse liver, IP 25mg/kg, 6h, single animals, 25 mg/kg): 2.85 ng/g and 1.80 ng/g
- Concentration in mouse plasma, individual mice 1, 2, 3 ([3]; mouse plasma, IP 25mg/kg, 1h, single animals, 25 mg/kg): 2146.60 ng/mL and 1507.85 ng/mL
- Concentration in mouse plasma, individual mice 1, 2, 3 ([3]; mouse plasma, IP 25mg/kg, 3h, single animals, 25 mg/kg): 2.23 ng/mL and 8.63 ng/mL and 2.55 ng/mL
- Concentration in mouse plasma, individual mice 1, 2, 3 ([3]; mouse plasma, IP 25mg/kg, 6h, single animals, limit of quantification 1 ng/mL, 25 mg/kg): <1 ng/mL
- Concentration in mouse plasma, individual mice 1, 2, 3 ([3]; mouse plasma, IP 25mg/kg, 24h, single animals, limit of quantification 1 ng/mL): <1 ng/mL
- concentration as low as which cullin 3 neddylation is inhibited (neddylation of cullin 3 [4]; 24 h, Fig. 1c): ≤ 1 nM
- potency in inhibition of cullin 3 neddylation compared with DI-591 (neddylation of cullin 3 [4]; 24 h, Fig. 1c): much more potent than DI-591
- times more potent than DI-591 in inhibition of cullin 3 neddylation (neddylation of cullin 3 [4]; 24 h, Fig. 1c): ~ 1000 times
- time within which the neddylation of cullin 3 is effectively inhibited (neddylation of cullin 3 [4]; U2OS, Fig. 6c): ≤ 5 min
- concentration achieving profound inhibition of the neddylation of cullin 3 (neddylation of cullin 3 [5]): 1 to 3 nM
- concentration as low as which the level of neddylated cullin 3 is significantly reduced (neddylation of cullin 3 [5]): ≤ 0.3 nM
